For the assay, the target named is GPR84 (Homo sapiens (Human), UniProt Q9NQS5). The experiment in a line: Gai biosensor BRET assay (GPR84-mediated activation of Gai, antagonist mode against agonist ZQ-16). Format: cell-based. Particulars: for IC50: HEK293 cells, 200 nmol/L GPR84 agonist ZQ-16, read-out: hGPR84 IC50; for inhibition at 10 µM: compound tested at 10 μM (concentration code D); for inhibition at 25 µM: compound tested at 25 μM (concentration code G); for inhibition at 12.5 µM: compound tested at 12.5 μM (concentration code E). From the text: Background—The following assays can be used for determination of GPR84 activation in living HEK293 cells. […] The Gai biosensor consists of a Rluc8-tagged Gαi2 subunit, a GFP10-tagged Gγ2 subunit, and an untagged Gβ1. […] Moreover, signaling functions of GPCRs are tightly regulated by endocytosis, the targeting of receptors to endosomes and their sorting to lysosomes or recycling to the plasma membrane. […] Agonist stimulation of GPR84—Rluc8 leads to trafficking of the receptor to EEs, and ensuing increase of the donor concentration relative to the rGFP-FYVE acceptor anchored in the same cellular compartment, and thus results in an increase in BRET signal.
GPR84, sequence (Q9NQS5 whole entry): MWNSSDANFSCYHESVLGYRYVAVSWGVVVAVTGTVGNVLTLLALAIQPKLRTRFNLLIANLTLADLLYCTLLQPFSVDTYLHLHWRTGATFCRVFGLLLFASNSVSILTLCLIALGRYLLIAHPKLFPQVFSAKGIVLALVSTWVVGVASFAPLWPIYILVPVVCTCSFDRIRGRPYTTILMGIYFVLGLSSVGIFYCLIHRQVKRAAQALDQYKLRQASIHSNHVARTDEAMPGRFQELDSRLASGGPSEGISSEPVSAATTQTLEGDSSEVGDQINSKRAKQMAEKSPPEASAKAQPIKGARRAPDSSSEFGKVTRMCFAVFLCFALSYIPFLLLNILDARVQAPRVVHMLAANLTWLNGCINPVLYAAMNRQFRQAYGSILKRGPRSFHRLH
Plasmids—The cDNA clones for human GPR84 receptor, human Gαi2, Gβ1, and Gγ2 were obtained from the cDNA Resource Center (www.cdna.org). GFP10 (F64L, S147P, S202F and H231L variant of Aequorea victoria Green Fluorescent Protein) gBlocks gene fragments (Integrated DNA Technologies, IA) and linker were inserted in frame at the N-terminus of human Gγ2. Rluc8 (A55T, C124A, S130A, K136R, A143M, M185V, M253L, and S287L variant of the Renilla renformis luciferase) gBlocks gene fragment was inserted with linkers in frame in between residues 91 and 92 of Gαi2 or at the C-terminus of GPR84. The FYVE domain from human endofin (residues Q739 to K806) attached in frame at the C terminus of a humanized Renilla GFP (rGFP), were synthesized as gBlocks gene fragments.
Bioluminescence Resonance Energy Transfer (BRET) Measurement—HEK293 cells were transfected with GPR84—Rluc8 and rGFP-FYVE for the EEs trafficking biosensor or with GPR84, Gαi2—Rluc8, GFP10-Gγ2, and Gβ1 for the Gai biosensor. The following day, transiently transfected cells were seeded in 96-well white clear bottom microplates coated with poly-D-lysine and left in culture for 24 hours. Cells were washed once with Tyrode's buffer (140 mmol/L NaCl, 1 mmol/L CaCl2, 2.7 mmol/L KCl, 0.49 mmol/L MgCl2, 0.37 mmol/L NaH2PO4, 5.6 mmol/L glucose, 12 mmol/L NaHCO3, and 25 mmol/L HEPES, pH 7.5) before performing assays in Tyrode's buffer. Test compounds were incubated with cells for 5 (Gai) or 15 (EEs) minutes at 37° C. before addition of 200 nmol/L of the GPR84 agonist ZQ-16 (2-(Hexylthio)-6-hydroxy-4(3H)-pyrimidinone) for 5 minutes at room temperature (Gai) or 30 minutes at 37° C. (EEs). The Rluc8 substrate coelenterazine 400A (Prolume, Lakeside, AZ) was added at a final concentration of […] and BRET readings were collected using an Infinite M1000 microplate reader (Tecan, Morrisville, NC). BRET^2 readings between Rluc8 and GFP10 or rGFP were collected by sequential integration of the signals detected in the 370 to 450 nm (Rluc8) and 510 to 540 nm (GFP10, rGFP) windows. The BRET signal was calculated as the ratio of light emitted by acceptor (GFP10, rGFP) over the light emitted by donor (Rluc8). The values were corrected to net BRET by subtracting the background BRET signal obtained in cells transfected with Rluc8 constructs alone. Ligand-promoted net BRET values were calculated by subtracting vehicle-induced net BRET from ligand-induced net BRET.

Each structure is given as a SMILES string.

On to `Cc1cc(OC[C@H]2COCCO2)cc(=O)n1[C@H](C)c1ccc(C#CC2CC2)cc1` (stereo in doubt) [Compound I-7], for which the IC50 (usually the midpoint of a concentration-inhibition curve) is below 5 µM and the inhibition (in general, the share of the control response that was lost under treatment) at 10 µM was above 75%.
For the molecule `Cc1cc(OCC2CCOCC2)cc(=O)n1[C@H](C)c1ccc(C#CC2CC2)cc1` (stereo in doubt) [Compound I-20], the inhibition at 10 µM fell in the range of 50 to 75%.
Molecule `Cc1cc(OCC2CCOCC2)cc(=O)n1[C@H](C)c1ccc(C#CCO)cc1` (stereo in doubt) [Compound I-61] had an inhibition at 10 µM of 25 to 50%.
The molecule `O=c1ncc(-c2ccc(C#CC3CC3)cc2)cn1C[C@H]1CCCCO1` (stereo in doubt) [Compound I-80, 5-(4-(cyclopropylethynyl)phenyl)-1-((tetrahydro-2H-pyran-2-yl)methyl)pyrimidin-2(1H)-one] returned an inhibition at 25 µM below 25%.
As for `COCC#Cc1ccc([C@@H](C)n2c(C)cc(OCC3CCOCC3)cc2=O)cc1` (stereo in doubt) [Compound I-83], the inhibition at 10 µM is below 25%.
Same read-out and setting: as for `Cc1cc(OC[C@@H]2COCCO2)cc(=O)n1[C@@H](C)c1ccc(C#CC2CC2)cc1` (stereo in doubt) [Compound I-89], the figure is below 25%; as for `Cc1cc(OC[C@@H]2CCCCO2)cc(=O)n1[C@H](C)c1ccc(C#CC2CC2)cc1` (stereo in doubt) [Compound I-144], above 75%; as for `Cc1cc(OCC2COCCO2)cc(=O)n1[C@H](CO)c1ccc(C#CC2CC2)cc1` (stereo in doubt) [Compound I-147], 25 to 50%.
Regarding `Cc1cc(OCC2CCOCC2)cc(=O)n1[C@H](C)c1ccc(N2CC(C)(C)C2)cc1` (stereo in doubt) [Compound I-148], the inhibition at 10 µM lay in the range of 25 to 50%.
The same measure, in the same setting: for `Cc1cc(OCc2ncccn2)cc(=O)n1[C@H](C)Cc1ccc(C#CC2CC2)cc1` (stereo in doubt) [Compound I-276] the value was above 75%; for `Cc1cc(OCc2ncccn2)cc(=O)n1[C@@H](C)Cc1ccc(C#CC2CC2)cc1` (stereo in doubt) [Compound I-277], below 25%; for `Cc1cc(OCc2ncccn2)cc(=O)n1[C@H](C)Cc1cccc(C#CC2CC2)c1` (stereo in doubt) [Compound I-281], below 25%.
The molecule `Cc1cc(OCc2ncccn2)cc(=O)n1[C@@H](C)Cc1cccc(C#CC2CC2)c1` (stereo in doubt) [Compound I-282] gave an inhibition at 10 µM below 25%.
With `Cc1cc(OCC2COCCO2)cc(=O)n1C(C)c1ccc(C#CC2CC2)cc1` (stereo not drawn) [Compound I-1], the IC50 is below 5 µM and the inhibition at 25 µM is above 75%.
Take `COc1cc(OCC2CCOCC2)cc(-c2ccc(-c3ccc(C)nc3)cc2C)n1` [Compound I-3]: the IC50 was below 5 µM.
Regarding `O=c1cc(OCC2COCCO2)cc(-n2ccc(OCC(F)(F)F)cc2=O)[nH]1` (stereo not drawn) [Compound I-5], the inhibition at 25 µM was below 25%.
With `Cc1cc(OC[C@@H]2COCCO2)cc(=O)n1[C@H](C)c1ccc(C#CC2CC2)cc1` [Compound I-6], the inhibition at 10 µM was above 75%.
In the case of `O=c1cc(OCC2COCCO2)cc(-c2ccc(C#CC3CC3)cc2)[nH]1` (stereo not drawn) [Compound I-8], the inhibition at 25 µM was below 25%.
The same measure, in the same setting: for `CSc1nc(OCC2COCCO2)cc(-c2cnc(OCC(F)(F)F)cc2C)n1` (stereo not drawn) [Compound I-9] the value was below 25%; for `O=c1nc(OCC2COCCO2)cc(-c2ccc(OCC(F)(F)F)cc2)[nH]1` (stereo not drawn) [Compound I-10], below 25%.
The molecule `CC(c1ccc(C#CC2CC2)cc1)n1ccc(OCC2COCCO2)cc1=O` (stereo not drawn) [Compound I-13] registered an inhibition at 10 µM above 75%.
In turn, `Cc1cc(OCC2COCCO2)cc(=O)n1Cc1cccc(C#CCNc2ccccc2)c1` (stereo not drawn) [Compound I-14] had an inhibition at 10 µM below 25%.
With `COc1cc(OCC2COCCO2)cc(-c2ccc(OCc3ccccn3)cc2)n1` (stereo not drawn) [Compound I-15], the inhibition at 12.5 µM is below 25%.
`O=c1cnn(CC2CCCCO2)c(-c2ccc(C#CC3CC3)cc2)c1` (stereo not drawn) [Compound I-16]: the inhibition at 25 µM is below 25%.
In the case of `COc1cc(OCC2CCCCO2)cc(-c2ccc(-c3ccc(C)nc3)cc2C)n1` (stereo not drawn) [Compound I-19], the inhibition at 25 µM is 50 to 75%.
As for `CCC(c1ccc(C#CC2CC2)cc1)n1c(C)cc(OCC2COCCO2)cc1=O` (stereo not drawn) [Compound I-21], the inhibition at 10 µM was 50 to 75%.
The same measure, in the same setting: for `Cc1nc(OCc2ccc(C#CC3CC3)cc2C)cc(OCC2COCCO2)n1` (stereo not drawn) [Compound I-23] the value was below 25%.
The molecule `Cc1cc(C#CC2CC2)ccc1-c1cncc(OCC2CCCCO2)c1` (stereo not drawn) [Compound I-24] registered an inhibition at 25 µM of 50 to 75%.
As for `C(#CC1CC1)c1ccc(-c2cncc(OCC3CCCCO3)c2)cc1` (stereo not drawn) [Compound I-25], the IC50 lay within 5 to 10 µM and the inhibition at 12.5 µM lay in the range of 50 to 75%.
For `CCn1c(-c2ccc(C#CC3CC3)cc2)cc(OCC2COCCO2)cc1=O` (stereo not drawn) [Compound I-26], the IC50 was in the range of 10 to 15 µM and the inhibition at 25 µM is 50 to 75%.
Regarding `Cn1c(-c2ccc(C#CC3CC3)cc2)nc(OCC2COCCO2)cc1=O` (stereo not drawn) [Compound I-27], the inhibition at 25 µM was 25 to 50%.
In turn, `Cc1cc(OC[C@H]2COCCO2)cc(=O)n1Cc1ccc(F)c(C#CC2CC2)c1` [Compound I-28] came in with an inhibition at 10 µM below 25%.
Molecule `COc1nc(OCC2COCCO2)cc(-c2ccc(C#CC3CC3)cc2)n1` (stereo not drawn) [Compound I-29] came in with an inhibition at 25 µM below 25%.
On to `Cc1cc(OCC(F)(F)F)ccc1-c1cncc(OC[C@H]2COCCO2)c1` [Compound I-32], for which the inhibition at 10 µM was in the range of 25 to 50%.
`Cc1cc(OCC(F)(F)F)ccc1-c1cccc(OCC2COCCO2)n1` (stereo not drawn) [Compound I-33] came in with an inhibition at 25 µM of 25 to 50%.
On the same count and under the same terms, for `Cc1nc(OCC2COCCO2)cc(=O)n1Cc1ccc(C#CC2CC2)cc1` (stereo not drawn) [Compound I-34] the value was 25 to 50%.
Regarding `Cc1cc(OCC2COCCO2)cc(=O)n1Cc1ccc(C#CC2CC2)cc1` (stereo not drawn) [Compound I-35], the IC50 was below 5 µM and the inhibition at 25 µM was 25 to 50%.
In the same order, the values of `COc1cc(OCC2COCCO2)cc(-c2ccc(-c3ccc(C)nc3)cc2C)n1` (stereo not drawn) [Compound I-36] are below 5 µM and 25 to 50%.
In the same order, the values of `COc1cc(OCC2COCCO2)cc(-c2ccc(OCc3ccccn3)cc2C)n1` (stereo not drawn) [Compound I-37] are below 5 µM and 25 to 50%.
On to `Cc1cc(OCC2COCCO2)nc(=O)n1Cc1ccc(C#CC2CC2)cc1` (stereo not drawn) [Compound I-38], for which the inhibition at 25 µM lay in the range of 25 to 50%.
In the case of `COc1cc(OC[C@H]2COCCO2)nc(-c2ccc(OCC(F)(F)F)cc2)c1C` [Compound I-39], the inhibition at 25 µM lay in the range of 25 to 50%.
The same measure, in the same setting: for `COc1cc(OCC2COCCO2)cc(-c2ccc(C#CC3CC3)cc2)n1` (stereo not drawn) [Compound I-40] the value was below 25%; for `COc1nc(OCC2COCCO2)cc(-c2ccc(OCC(F)(F)F)cn2)n1` (stereo not drawn) [Compound I-41], below 25%.
Regarding `Cc1cc(C#CC2CC2)ccc1-c1cncc(OCC2COCCO2)c1` (stereo not drawn) [Compound I-43], the inhibition at 10 µM is 25 to 50%.
On the same count and under the same terms, for `Cc1cc(OC[C@H]2COCCO2)cc(=O)n1[C@@H](C)c1ccc(C#CC2CC2)cc1` [Compound I-44] the value was 25 to 50%.
With `COc1cc(OCC2CCCOC2)cc(-c2ccc(-c3ccc(C)nc3)cc2C)n1` (stereo not drawn) [Compound I-45], the inhibition at 25 µM was in the range of 25 to 50%.
The same measure, in the same setting: as for `COc1cc(OCC2COCCO2)cc(-c2c(C)cc(OCc3ccccn3)cc2C)n1` (stereo not drawn) [Compound I-46], the figure is 25 to 50%.

For the origin of these results see patent US20250340543A1, “GPR84 ANTAGONISTS AND USES THEREOF” (Liminal BioSciences Limited, priority 2021, published 2025).
